From US20050256003A1, “Novel herbicides” (priority 2002, published 2005)

Assays:
[1] = system: monocotyledonous and dicotyledonous test plants; assay: Post-emergence herbicidal action; assay type: in vivo; set-up: key: 10=total damage; 0=no action; Ratings of from 10 to 7 (especially from 10 to 8) indicate good to very good herbicidal action; details: 250 g a.i./ha, about 18 days, rating 0-10
Description: Post-Emergence Herbicidal Action
In a greenhouse, monocotyledonous and dicotyledonous test plants are grown in standard soil in plastic pots and at the 4- to 6-leaf stage are sprayed with an aqueous suspension of the test compounds of formula I prepared from a 25% wettable powder (Example F3, b) according to WO 97/34485) or with an emulsion of the test compounds of formula I prepared from a 25% emulsifiable concentrate (Example F1, c) according to WO 97/34485), in a concentration corresponding to 125 g or 250 g of active ingredient/ha (500 litres of water/ha). The test plants are then grown on in a greenhouse under optimum conditions. After a test duration of about 18 days, the test is evaluated in accordance with a scale of nine ratings (10=total damage, 0=no action). Ratings of from 10 to 7 (especially from 10 to 8) indicate good to very good herbicidal action.

[2] = system: monocotyledonous and dicotyledonous test plants; assay: Herbicidal action prior to emergence of the plants (pre-emergence action); assay type: in vivo; set-up: key: 10=total damage; 0=no action; Ratings of from 10 to 7 (especially from 10 to 8) indicate good to very good herbicidal action; details: 250 g a.i./ha, pre-emergence spray, evaluated after 3 weeks, scale 10=total damage, 0=no action
Text: Herbicidal Action Prior to Emergence of the Plants (Pre-Emergence Action)
Monocotyledonous and dicotyledonous test plants are sown in standard soil in plastic pots Immediately after sowing, the test compounds, in the form of an aqueous suspension (prepared from a 25% wettable powder (Example F3, b) according to WO 97/34485) or in the form of an emulsion (prepared from a 25% emulsifiable concentrate (Example F1, c)), are applied by spraying in a concentration corresponding to 125 g or 250 g of active ingredient/ha (500 litres of water/ha). The test plants are then grown in a greenhouse under optimum conditions. After a test duration of 3 weeks, the test is evaluated in accordance with a scale of nine ratings (10=total damage, 0=no action). Ratings of from 10 to 7 (especially from 10 to 8) indicate good to very good herbicidal action.

Structure (SMILES) | Post-emergence action, Amaranthus [1] | Post-emergence action, Chenopodium [1] | Post-emergence action, Echinochloa [1] | Post-emergence action, Euphorbia [1] | Post-emergence action, Ipomea [1] | Post-emergence action, Sinapis [1] | Post-emergence action, Stellaria [1] | Post-emergence action, Xanthium [1] | Pre-emergence action: Abutilon (rating) [2] | Pre-emergence action: Amaranthus (rating) [2] | Pre-emergence action: Chenopodium (rating) [2] | Pre-emergence action: Cyperus (rating) [2] | Pre-emergence action: Panicum (rating) [2] | Pre-emergence action: Scirpus (rating) [2] | Pre-emergence action: Sida (rating) [2] | Pre-emergence action: Echinochloa (rating) [2]
COc1nn(Cc2nc(C(F)(F)F)ccc2C(=O)c2cnn(C)c2O)c(=O)s1 [Compound B1.096] | 7 | 10 | 6 | 7 | 7 | 9 | 8 | 8 | 10 | 10 | 10 | 7 | 7 | 7 | 7 | 
Cc1nn(Cc2nc(C(F)(F)F)ccc2C(=O)C2=C(O)C(C)(C)C(=O)C(C)(C)C2=O)c(=O)o1 [Compound A8.008] | 9 | 8 | 8 | 8 | 9 | 7 | 6 | 9 | 10 |  | 10 | 0 | 10 | 0 | 10 | 10
Cc1nn(Cc2nc(C(F)(F)F)ccc2C(=O)c2cnn(C)c2O)c(=O)o1 [Compound B1.008] | 9 | 10 | 9 | 8 | 9 | 7 | 8 |  | 10 | 10 | 10 | 9 | 10 | 10 | 9 | 9
CC(C)N1CC(=O)N(Cc2nc(C(F)(F)F)ccc2C(=O)c2cnn(C)c2O)C1=O [Compound B1.170] | 9 | 9 | 9 | 7 | 0 | 9 | 9 | 6 | 9 | 9 | 10 | 8 | 9 | 9 | 9 | 9
Cc1nn(CCOCc2nc(C(F)(F)F)ccc2C(=O)C2=C(O)C3CCC(C3)C2=O)c(=O)o1 (centres unmarked) [Compound A6.100] | 9 | 10 | 7 | 7 | 9 | 8 | 9 | 7 | 10 | 10 | 10 | 6 | 10 | 10 | 10 | 10
CSC(C)n1c(C)cc(=O)n1Cc1nc(C(F)(F)F)ccc1C(=O)C1=C(O)CCCC1=O (racemic) [Compound A1.055] |  |  |  |  |  |  |  |  | 10 | 0 | 10 | 10 | 9 | 9 | 10 | 10
CCOc1nn(Cc2nc(C(F)(F)F)ccc2C(=O)C2=C(O)CCCC2=O)c(=O)n1C [Compound A1.037] | 9 | 9 | 4 | 8 | 9 | 8 | 8 | 9 |  |  |  |  |  |  |  | 
COc1nn(Cc2nc(C(F)(F)F)ccc2C(=O)C2=C(O)CCCC2=O)c(=O)n1C1CC1 [Compound A1.031] | 9 | 10 | 7 | 8 | 9 | 8 | 9 | 9 |  |  |  |  |  |  |  | 
CCOc1nn(Cc2nc(C(F)(F)F)ccc2C(=O)c2cnn(C)c2O)c(=O)n1C1CC1 [Compound B1.056] | 9 | 8 | 9 | 9 | 10 | 8 | 7 | 0 |  |  |  |  |  |  |  | 
Cc1nn(Cc2nc(C(F)(F)F)ccc2C(=O)C2=C(O)C3CCC(C3)C2=O)c(=O)s1 (centres unmarked) [Compound A6.079] |  |  |  |  |  |  |  |  | 10 | 7 | 10 | 6 | 9 | 9 | 6 | 7
CCOc1nn(Cc2nc(C(F)(F)F)ccc2C(=O)C2=C(O)CCCC2=O)c(=O)n1C1CC1 [Compound A1.049] | 9 | 8 | 8 | 9 | 9 | 8 | 8 | 9 |  |  |  |  |  |  |  | 
COc1nn(Cc2nc(C(F)(F)F)ccc2C(=O)C2=C(O)CCCC2=O)c(=O)n1C [Compound A1.019] | 9 | 9 | 8 | 9 | 9 | 8 | 8 | 9 |  |  |  |  |  |  |  | 
CCN1C(=O)N(Cc2nc(C(F)(F)F)ccc2C(=O)C2=C(O)CCCC2=O)C(=O)C1C (racemic) [Compound A1.181] | 9 | 8 | 4 | 8 | 8 | 5 | 7 | 8 |  |  |  |  |  |  |  | 
CN1CCN(Cc2nc(C(F)(F)F)ccc2C(=O)C2=C(O)CCCC2=O)C1=S [Compound A1.202] | 9 | 8 | 8 | 9 | 9 | 8 | 7 | 9 |  |  |  |  |  |  |  | 
